Key:
RORγt [1] = biological target: T1, RORγt (Homo sapiens, UniProt P51449); assay: Cofactor recruitment test (Alpha Screen, biotinylated SRC-1 peptide); assay type: biochemical; conditions: for inhibition at 1 µM: read-out: signal value inhibitory rate (%) at test compound 1 μM
T1 sequence (P51449 1-497 isoform P51449-2): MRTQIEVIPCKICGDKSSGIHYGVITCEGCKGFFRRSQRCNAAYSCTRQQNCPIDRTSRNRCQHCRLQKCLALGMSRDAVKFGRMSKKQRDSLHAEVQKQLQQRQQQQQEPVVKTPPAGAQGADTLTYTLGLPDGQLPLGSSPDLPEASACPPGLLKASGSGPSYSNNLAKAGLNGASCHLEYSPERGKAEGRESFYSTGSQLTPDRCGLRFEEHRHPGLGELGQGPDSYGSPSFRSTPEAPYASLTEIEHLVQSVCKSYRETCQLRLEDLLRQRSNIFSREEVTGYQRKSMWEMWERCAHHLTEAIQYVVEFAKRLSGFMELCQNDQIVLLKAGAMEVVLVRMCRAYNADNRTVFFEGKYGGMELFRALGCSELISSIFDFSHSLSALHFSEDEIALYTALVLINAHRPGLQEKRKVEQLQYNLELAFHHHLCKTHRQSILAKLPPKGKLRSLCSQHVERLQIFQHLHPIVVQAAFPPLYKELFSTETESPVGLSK
Experimental: Cofactor Recruitment Test
Cofactor recruitment test was performed by Alpha Screen (Histidine Detection Kit, PerkinElmer) method. First, a test compound was diluted with an assay buffer (50 mM Tris-HCl (pH 7.5), 50 mM KCl, 1 mM DTT, 0.1% BSA) and added to a 384 well plate by 5 μL. […] The mixture was stood in a dark place for 1 hr, and the signal value was measured by Envision (PerkinElmer).

RORγt [2] = biological target: T1, RORγt; assay: RORγt binding test using fluorescent-labeled synthetic ligand (TR-FRET); conditions: for inhibition at 1 µM: test compound 1 μM, read-out: binding inhibitory rate (%) of fluorescent-labeled synthetic ligand to RORγt at test compound 1 μM
Experimental: RORγt Binding Test Using Fluorescent-Labeled Synthetic Ligand
The binding activity of the test compound to RORγt was measured by a time resolved fluorescence resonance energy transfer (TR-FRET) utilizing histidine-tagged RORγt, fluorescent-labeled synthetic ligand, and terbium-labeled anti-histidine tag antibody (Invitrogen). First, a test compound diluted with an assay buffer (20 mM Tris-HCl (pH 7.5), 100 mM NaCl, 1 mM DTT, 0.1% BSA) was added to a 384 well plate by 3 μL. Then, RORγt diluted with an assay buffer to 240 nM was added by 3 μL, after which fluorescent-labeled synthetic ligand diluted with the assay buffer to 12 μM was added by 3 μL, and the mixture was stood at room temperature for 20 min. Thereafter, a terbium-labeled anti-histidine tag antibody diluted with the assay buffer to 8 nM was added by 3 μL. The mixture was stood at room temperature for 20 min, and fluorescence intensity (excitation wavelength 320 nm, fluorescence wavelength 520 nm, delay time 100 microseconds) was measured by Envision (PerkinElmer).

RORγt [3] = biological target: T1, RORγt; assay: Jurkat reporter test (human IL-17 ROR response element luciferase reporter, RORγt vector); assay type: cell-based; conditions: Jurkat cells; for inhibition at 3 µM: test compound 3 μM, read-out: luminescence level inhibitory rate (%) at test compound 3 μM
Experimental: The Jurkat cells used for the reporter test were cultured in a culture medium (RPMI (Invitrogen), 10% FCS (AusGeneX), 100 U/mL penicillin, 100 μg/mL streptomycin). On the day of the test, 4×10^7 cells were recovered by a centrifugal operation (1000 rpm, for 5 min) and suspended in PBS (phosphate buffered saline) (Invitrogen). Thereafter, the cells were recovered again by a centrifugal operation, and suspended in 2 mL of R buffer (NEON transfection kit, Invitrogen). […] Gene transfer was performed by Electroporation apparatus (NEON, Invitrogen) under the conditions of pulse voltage 1350 V, interval 10 milliseconds, number of times 3. The cells after gene transfer were suspended in 40 mL of a reaction medium (RPMI, 10% Lipid reduced FCS (HyClone), 10 mM HEPES (pH 7.5), 100 U/mL penicillin, 100 μg/mL streptomycin, 5 μM lovastatin), and plated in a 96 well plate by 90 μL. A test compound diluted with the reaction medium was added by 10 μL, and the cells were cultured overnight in an incubator. Bright-Glo (Promega) was added by 100 μL, and the mixture was stirred at room temperature for 10 min, and the luminescence level was measured by Envision (PerkinElmer).

| Compound | inhibition at 1 µM (RORγt [1]) | inhibition at 1 µM (RORγt [2]) | inhibition at 3 µM (RORγt [3]) | signal value inhibitory rate (%) at test compound 1 μM (RORγt [1]; test compound 1 μM) | binding inhibitory rate (%) of fluorescent-labeled synthetic ligand to RORγt at test compound 1 μM (RORγt [2]) | luminescence level inhibitory rate (%) at test compound 3 μM (RORγt [3]) |
| --- | --- | --- | --- | --- | --- | --- |
| CC(C)n1c(=O)n(CC2CC2)c(=O)c2cc(NC(=O)N3CCC[C@@H](N4Cc5ccc(Cl)cc5C4=O)C3)c(F)cc21 [Example 336, (3R)-3-(6-chloro-1-oxo-1,3-dihydro-2H-isoindol-2-yl)-N-(3-(cyclopropylmethyl)-7-fluoro-1-isopropyl-2,4-dioxo-1,2,3,4-tetrahydroquinazolin-6-yl)piperidine-1-carboxamide] | 106% | 102% | 106% | – | – | – |
| CC(C)n1c(=O)n(CC2CC2)c(=O)c2cc(NC(=O)N3CCO[C@@H](C(=O)Nc4cc(F)c(C#N)cc4F)C3)c(F)cc21 [Example 171, (2R)-N^2-(4-cyano-2,5-difluorophenyl)-N^4-(3-(cyclopropylmethyl)-7-fluoro-1-isopropyl-2,4-dioxo-1,2,3,4-tetrahydroquinazolin-6-yl)morpholine-2,4-dicarboxamide] | 107% | 101% | 103% | – | – | – |
| COC(=O)NCc1ccc(C(=O)N[C@@H]2CCCN(C(=O)Nc3cc4c(=O)n(CC5CC5)c(=O)n(C(C)C)c4cc3F)C2)cc1 [Example 321, methyl (4-(((3R)-1-((3-(cyclopropylmethyl)-7-fluoro-1-isopropyl-2,4-dioxo-1,2,3,4-tetrahydroquinazolin-6-yl)carbamoyl)piperidin-3-yl)carbamoyl)benzyl)carbamate] | 105% | 101% | 101% | – | – | – |
| CC(C)n1c(=O)n(CC2CC(F)(F)C2)c(=O)c2cc(NC(=O)N3CCC[C@@H](n4cnc5cc(C#N)ccc5c4=O)C3)c(F)cc21 [Example 363, (3R)-3-(7-cyano-4-oxoquinazoline-3(4H)-yl)-N-(3-((3,3-difluorocyclobutyl)methyl)-7-fluoro-1-isopropyl-2,4-dioxo-1,2,3,4-tetrahydroquinazolin-6-yl)piperidine-1-carboxamide] | 106% | 102% | 107% | – | – | – |
| CC(C)n1c(=O)n(CC2CC2(F)F)c(=O)c2cc(NC(=O)N3CCO[C@@H](C(=O)Nc4ccc(C#N)c(Cl)c4)C3)c(F)cc21 (stereo partly drawn) [Example 331, (2R)—N^2-(3-chloro-4-cyanophenyl)-N^4-(3-((2,2-difluorocyclopropyl)methyl)-7-fluoro-1-isopropyl-2,4-dioxo-1,2,3,4-tetrahydroquinazolin-6-yl)morpholine-2,4-dicarboxamide] | 109% | 102% | 103% | – | – | – |
| CC(C)n1c(=O)n(CC2CC2)c(=O)c2cc(NC(=O)N3CCC[C@@H](n4cnc5cc(C#N)ccc5c4=O)C3)c(F)cc21 [Example 324, (3R)-3-(7-cyano-4-oxoquinazoline-3(4H)-yl)-N-(3-(cyclopropylmethyl)-7-fluoro-1-isopropyl-2,4-dioxo-1,2,3,4-tetrahydroquinazolin-6-yl)piperidine-1-carboxamide] | 106% | 102% | 103% | – | – | – |
| CC(C)n1c(=O)n(CC2CC2)c(=O)c2cc(NC(=O)N3CCO[C@@H](C(=O)Nc4ccc(C#N)c(Cl)c4)C3)c(F)cc21 [Example 235, (2R)-N^2-(3-chloro-4-cyanophenyl)-N^4-(3-(cyclopropylmethyl)-7-fluoro-1-isopropyl-2,4-dioxo-1,2,3,4-tetrahydroquinazolin-6-yl)morpholine-2,4-dicarboxamide] | 109% | 102% | 103% | – | – | – |
| COC(=O)N1Cc2ccc(C(=O)N[C@@H]3CCCN(C(=O)Nc4cc5c(=O)n(CC6CC6)c(=O)n(C(C)C)c5cc4F)C3)cc2C1 [Example 343, methyl 5-(((3R)-1-((3-(cyclopropylmethyl)-7-fluoro-1-isopropyl-2,4-dioxo-1,2,3,4-tetrahydroquinazolin-6-yl)carbamoyl)piperidin-3-yl)carbamoyl)-1,3-dihydro-2H-isoindole-2-carboxylate] | 107% | 101% | 108% | – | – | – |
| CC(C)n1c(=O)n(CC2CC2(F)F)c(=O)c2cc(NC(=O)N3CCOC(C(=O)Nc4cc(Cl)c(C#N)cc4F)C3)c(F)cc21 (mixture of isomers) [Example 348, (2R)—N^2-(5-chloro-4-cyano-2-fluorophenyl)-N^4-(3-((2,2-difluorocyclopropyl)methyl)-7-fluoro-1-isopropyl-2,4-dioxo-1,2,3,4-tetrahydroquinazolin-6-yl)morpholine-2,4-dicarboxamide (mixture of two stereoisomers)] | 107% | 102% | 107% | – | – | – |
| CC(C)n1c(=O)n(CC2CC2)c(=O)c2cc(NC(=O)N3CCCC(NC(=O)c4ccc(C#N)nc4)C3)ccc21 (stereo not drawn) [Example 157, 6-cyano-N-(1-((3-(cyclopropylmethyl)-1-isopropyl-2,4-dioxo-1,2,3,4-tetrahydroquinazolin-6-yl)carbamoyl)piperidin-3-yl) nicotinamide] | 109% | 102% | 102% | – | – | – |
| COc1ccc(C(=O)N[C@@H]2CCCN(C(=O)Nc3ccc4c(c3)c(=O)n(CC3CC3)c(=O)n4C(C)C)C2)cc1 [Example 244, (3R)-N-(3-(cyclopropylmethyl)-1-isopropyl-2,4-dioxo-1,2,3,4-tetrahydroquinazolin-6-yl)-3-((4-methoxybenzoyl)amino)piperidine-1-carboxamide] | 105% | 102% | 104% | – | – | – |
| COC(=O)c1ccc(C(=O)NC2CCCN(C(=O)Nc3ccc4c(c3)c(=O)n(CC3CC3)c(=O)n4C(C)C)C2)cc1 (stereo not drawn) [Example 132, methyl 4-((1-((3-(cyclopropylmethyl)-1-isopropyl-2,4-dioxo-1,2,3,4-tetrahydroquinazolin-6-yl)carbamoyl)piperidin-3-yl)carbamoyl)benzoate] | 112% | 102% | 100% | – | – | – |
| CC(C)n1c(=O)n(CC2CC2(F)F)c(=O)c2cc(NC(=O)N3CCOC(C(=O)Nc4ccc(C#N)c(Cl)c4)C3)c(F)cc21 (single isomer, unassigned) [Example 368, (2R)—N^2-(3-chloro-4-cyanophenyl)-N^4-(3-(((1R or 1S)-2,2-difluorocyclopropyl)methyl)-7-fluoro-1-isopropyl-2,4-dioxo-1,2,3,4-tetrahydroquinazolin-6-yl)morpholine-2,4-dicarboxamide (one stereoisomer, quinazolinedione: derived from tR2)] | – | – | – | 105% | 102% | 108% |
| CC(C)n1c(=O)n(CC2CC2)c(=O)c2cc(NC(=O)N3CCNC(C(=O)Nc4ccc(C#N)c(Cl)c4)C3)ccc21 (stereo not drawn) [Example 82, N^3-(3-chloro-4-cyanophenyl)-N^1-(3-(cyclopropylmethyl)-1-isopropyl-2,4-dioxo-1,2,3,4-tetrahydroquinazolin-6-yl)piperazine-1,3-dicarboxamide] | 103% | 101% | 102% | – | – | – |

Source: patent publication US10000488B2, “Heterocyclic compound” (TAKEDA PHARMACEUTICAL COMPANY LIMITED, priority 2014, dated 2018)
